From patent US5840697A, “Peptide inhibitors of calmodulin” (Torrey Pines Institute for Molecular Studies, priority 1996, dated 1998)
Square brackets hold non-standard residues; d marks the D form. Peptide text beside a SMILES is read from it.

How the values were obtained:
[1] = molecular target: calmodulin (Homo sapiens, UniProt P0DP23); test: electrophoretic band shift assay of peptide-calmodulin complexes; format: binding
Protocol: The following samples were subjected to electrophoresis in the gel lane indicated:
Because melittin is known to bind to calmodulin as described, for example, in Comte et al., Biochem. J., 209:269-272 (1983), in the above samples melittin is the positive control. The samples were incubated with calmodulin at 22° C. for 1 hr, and electrophoresed on a 10% acrylamide gel in Tris-glycine buffer under nondenaturating conditions as described in Head and Perry, Biochem. J., 137:145-154 (1974), which is incorporated herein by reference. The gel was then stained with coomasie blue.
The band shifts were also measured using a densitometer. Determination of band width by densitometry was done on the following samples: (1) calmodulin (1 nmol)+EDTA (2 nmol); (2) calmodulin (1 nmol)+Ca^2+ (1 nmol)+Ac-(D)Leu-(D)Trp-(D)Arg-(D)Ile-(D)Leu-(D)Trp-NH2 (100 nmol); and (3) calmodulin (1 nmol)+Ca^2+ (1 nmol).

[2] = system: normal rat kidney (NRK) cells; test: DNA synthesis ([3H]-thymidine incorporation) in cell culture; format: cell-based; details: added at 5 hr
Protocol: Following the methods described in Lopez-Girona et al., Cell Calcium, 18:30-40 (1995), which is incorporated herein by reference, the effect of calmodulin inhibitory peptides on DNA synthesis was investigated. Specifically, peptides were added to culture media and assessed for their ability to inhibit the progression of normal rat kidney (NRK) cells into the S phase of the cell cycle; the DNA synthesis phase into the cell growth cycle. Such inhibition has been shown for existing anti-calmodulin drugs such as W13.
NRK cells were made quiescent by growing them to confluence in Dulbecco's minimum essential medium supplemented with 5% fetal calf serum (FCS), and then kept for 3-4 days in the same medium but with only 0.5% FCS. To allow them to re-enter the cell cycle, quiescent cells were trypsinized and subcultured at a lower density in fresh medium supplemented with 5% FCS.
DNA synthesis was analyzed by the measurement of [^3 H]-thymidine into whole cell DNA. NRK cells (10^5 per 35 mm plate) were pulse labeled for 1 hr with [methyl-^3 H]-thymidine (5 Ci/mmol) at 4 μCi/ml in Dulbecco's minimum essential medium supplemented with 5% FCS. Precipitation and solubilization of DNA was carried out as described in Cripps-Wolfman et al., J. Biol. Chem., 264:19478-19486 (1989), which is incorporated herein by reference.
The NRK cells stimulated to proliferate by addition of 5% FCS enter synchronously into the cell cycle and start the S phase after 12 hr reaching a maximum between 18 to 20 hr. The peptides were added at 5 hr (time at which the cells have already reenter the G1 phase). […] Similar results were found between the (D)-amino acid peptides and their (L)-counterpart.

Compound: CC[C@@H](C)[C@@H](NC(=O)[C@@H](CCCNC(=N)N)NC(=O)[C@@H](Cc1c[nH]c2ccccc12)NC(=O)[C@@H](CC(C)C)NC(C)=O)C(=O)N[C@H](CC(C)C)C(=O)N[C@H](Cc1c[nH]c2ccccc12)C(N)=O [Ac-(D)Leu-(D)Trp-(D)Arg-(D)Ile-(D)Leu-(D)Trp-NH2] (Ac-[dL][dW][dR][dI][dL][dW]-NH2)
- band shift (mobility change) on binding to calmodulin ([1]; in the presence of Ca2+): shifted relative to lane 8
- band shift (mobility change) on binding to calmodulin ([1]; with EDTA (no calcium)): no band shift
- % DNA SYNTHESIS ([2]; 7.5 μM): 59%
- % DNA SYNTHESIS ([2]; 15 μM): 25%
